Source: the kinase profiling compilation of Christmann-Franck et al. (2016)

Key:
Assay in all cases: radiometric filter-binding kinase assay, Kinase HotSpot
Conditions in all cases: compound 0.5 µM; ATP 10 µM
ACVRL1 (human) = ACVRL1 (human) (UniProt P37023)
NEK7 (human) = NEK7 (human) (UniProt Q8TDX7)
KIT (human) = KIT (human) (UniProt P10721)
DAPK1 (human) = DAPK1 (human) (UniProt P53355)
EPHA3 (human) = EPHA3 (human) (UniProt P29320)
[1] = tested on: FLT4 (human), P35916 [Q890H]
SGK2 (human) = SGK2 (human) (UniProt Q9HBY8)
NLK (human) = NLK (human) (UniProt Q9UBE8)
[2] = tested on: PRKCQ (human), Q04759 [P330L]
PNCK (human) = PNCK (human) (UniProt Q6P2M8)
MST1R (human) = MST1R (human) (UniProt Q04912)
ITK (human) = ITK (human) (UniProt Q08881)
CLK2 (human) = CLK2 (human) (UniProt P49760)
MELK (human) = MELK (human) (UniProt Q14680)
VRK1 (human) = VRK1 (human) (UniProt Q99986)
MYLK (human) = MYLK (human) (UniProt Q15746)
PAK3 (human) = PAK3 (human) (UniProt O75914)
CSNK1G1 (human) = CSNK1G1 (human) (UniProt Q9HCP0)
PRKCA (human) = PRKCA (human) (UniProt P17252)
AURKC (human) = AURKC (human) (UniProt Q9UQB9)
PRKCZ (human) = PRKCZ (human) (UniProt Q05513)
ROS1 (human) = ROS1 (human) (UniProt P08922)
CHEK1 (human) = CHEK1 (human) (UniProt O14757)
TYRO3 (human) = TYRO3 (human) (UniProt Q06418)
FGR (human) = FGR (human) (UniProt P09769)
DYRK3 (human) = DYRK3 (human) (UniProt O43781)
IRAK1 (human) = IRAK1 (human) (UniProt P51617)
CAMK1 (human) = CAMK1 (human) (UniProt Q14012)
CDK1 CCNA2 (human) = CDK1 CCNA2 (human) (UniProt P06493+P20248)
PRKCI (human) = PRKCI (human) (UniProt P41743)
[3] = tested on: MAP2K6 (human), P52564 [S207E/T211E]
FLT1 (human) = FLT1 (human) (UniProt P17948)
HCK (human) = HCK (human) (UniProt P08631)
IRAK4 (human) = IRAK4 (human) (UniProt Q9NWZ3)
NEK2 (human) = NEK2 (human) (UniProt P51955)
AURKB (human) = AURKB (human) (UniProt Q96GD4)
PTK2B (human) = PTK2B (human) (UniProt Q14289)
ADRBK2 (human) = ADRBK2 (human) (UniProt P35626)
RPS6KB1 (human) = RPS6KB1 (human) (UniProt P23443)
STK25 (human) = STK25 (human) (UniProt O00506)
RPS6KA4 KD2 (human) = RPS6KA4 KD2 (human) (UniProt O75676)
CAMK2G (human) = CAMK2G (human) (UniProt Q13555)

PRKCI (human), sequence (P41743 whole entry, looked up): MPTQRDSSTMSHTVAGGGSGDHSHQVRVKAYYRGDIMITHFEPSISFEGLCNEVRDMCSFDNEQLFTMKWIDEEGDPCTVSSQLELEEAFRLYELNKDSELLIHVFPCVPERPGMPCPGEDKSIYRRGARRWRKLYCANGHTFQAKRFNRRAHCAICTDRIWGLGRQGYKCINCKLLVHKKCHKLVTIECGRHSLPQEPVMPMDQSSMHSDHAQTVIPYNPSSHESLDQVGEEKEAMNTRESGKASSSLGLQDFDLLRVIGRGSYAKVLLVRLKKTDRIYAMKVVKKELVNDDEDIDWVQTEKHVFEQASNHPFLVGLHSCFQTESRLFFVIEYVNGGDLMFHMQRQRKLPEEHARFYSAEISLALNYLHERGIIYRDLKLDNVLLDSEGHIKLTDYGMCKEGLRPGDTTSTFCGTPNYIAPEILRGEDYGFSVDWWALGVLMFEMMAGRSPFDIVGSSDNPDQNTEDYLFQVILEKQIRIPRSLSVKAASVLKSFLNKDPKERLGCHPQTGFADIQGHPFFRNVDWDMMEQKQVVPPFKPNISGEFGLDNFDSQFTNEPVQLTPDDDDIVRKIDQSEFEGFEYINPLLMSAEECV
CHEK1 (human), sequence (O14757 whole entry, looked up): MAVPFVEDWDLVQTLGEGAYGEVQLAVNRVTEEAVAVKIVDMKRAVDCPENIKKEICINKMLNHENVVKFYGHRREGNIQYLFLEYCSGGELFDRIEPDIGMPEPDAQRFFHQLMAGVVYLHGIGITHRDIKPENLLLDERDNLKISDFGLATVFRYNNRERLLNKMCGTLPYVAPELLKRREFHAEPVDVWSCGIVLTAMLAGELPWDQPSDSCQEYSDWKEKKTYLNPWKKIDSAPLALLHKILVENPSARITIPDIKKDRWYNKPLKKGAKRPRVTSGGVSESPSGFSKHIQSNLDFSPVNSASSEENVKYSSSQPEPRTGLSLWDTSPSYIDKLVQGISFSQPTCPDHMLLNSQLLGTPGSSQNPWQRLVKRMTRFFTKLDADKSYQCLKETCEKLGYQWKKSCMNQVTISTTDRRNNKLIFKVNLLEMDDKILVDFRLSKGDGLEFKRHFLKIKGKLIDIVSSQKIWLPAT
PTK2B (human), sequence (Q14289 whole entry, looked up): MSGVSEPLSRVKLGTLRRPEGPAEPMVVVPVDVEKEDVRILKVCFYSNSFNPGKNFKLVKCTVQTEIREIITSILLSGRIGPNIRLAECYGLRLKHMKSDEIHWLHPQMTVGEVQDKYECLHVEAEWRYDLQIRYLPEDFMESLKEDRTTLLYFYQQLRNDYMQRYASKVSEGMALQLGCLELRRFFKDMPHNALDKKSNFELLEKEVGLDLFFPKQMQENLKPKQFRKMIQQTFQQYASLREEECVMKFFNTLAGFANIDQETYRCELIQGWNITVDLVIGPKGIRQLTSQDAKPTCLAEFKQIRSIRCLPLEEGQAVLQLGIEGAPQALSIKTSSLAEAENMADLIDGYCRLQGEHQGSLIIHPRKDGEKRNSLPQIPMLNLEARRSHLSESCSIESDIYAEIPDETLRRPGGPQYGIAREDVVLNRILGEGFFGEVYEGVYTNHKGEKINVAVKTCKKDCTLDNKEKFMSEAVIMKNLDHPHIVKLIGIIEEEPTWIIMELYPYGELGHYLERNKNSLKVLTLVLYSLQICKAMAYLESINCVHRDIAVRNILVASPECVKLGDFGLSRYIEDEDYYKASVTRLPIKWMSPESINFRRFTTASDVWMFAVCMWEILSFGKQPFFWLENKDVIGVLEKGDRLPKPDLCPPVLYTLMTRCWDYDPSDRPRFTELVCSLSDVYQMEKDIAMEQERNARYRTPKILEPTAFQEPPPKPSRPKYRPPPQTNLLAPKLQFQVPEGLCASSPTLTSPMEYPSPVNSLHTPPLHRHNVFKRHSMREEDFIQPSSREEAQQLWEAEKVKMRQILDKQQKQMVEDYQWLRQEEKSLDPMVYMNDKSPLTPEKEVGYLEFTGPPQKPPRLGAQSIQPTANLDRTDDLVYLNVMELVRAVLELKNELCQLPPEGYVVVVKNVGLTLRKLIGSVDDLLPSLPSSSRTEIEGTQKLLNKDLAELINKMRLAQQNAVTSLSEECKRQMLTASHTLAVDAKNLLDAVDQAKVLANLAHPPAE
CLK2 (human), sequence (P49760 whole entry, looked up): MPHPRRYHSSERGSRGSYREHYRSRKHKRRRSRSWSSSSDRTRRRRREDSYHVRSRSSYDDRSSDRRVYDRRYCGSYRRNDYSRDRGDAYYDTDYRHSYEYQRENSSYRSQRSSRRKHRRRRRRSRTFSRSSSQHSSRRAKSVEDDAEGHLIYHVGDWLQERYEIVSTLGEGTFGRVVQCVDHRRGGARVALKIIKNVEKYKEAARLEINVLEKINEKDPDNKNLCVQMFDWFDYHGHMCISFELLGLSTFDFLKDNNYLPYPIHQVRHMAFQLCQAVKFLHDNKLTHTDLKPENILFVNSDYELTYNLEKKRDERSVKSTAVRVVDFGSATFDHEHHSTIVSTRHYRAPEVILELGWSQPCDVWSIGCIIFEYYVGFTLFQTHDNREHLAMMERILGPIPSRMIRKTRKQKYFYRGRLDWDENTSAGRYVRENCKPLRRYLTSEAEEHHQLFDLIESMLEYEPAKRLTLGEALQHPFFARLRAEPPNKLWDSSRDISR
MELK (human), sequence (Q14680 whole entry, looked up): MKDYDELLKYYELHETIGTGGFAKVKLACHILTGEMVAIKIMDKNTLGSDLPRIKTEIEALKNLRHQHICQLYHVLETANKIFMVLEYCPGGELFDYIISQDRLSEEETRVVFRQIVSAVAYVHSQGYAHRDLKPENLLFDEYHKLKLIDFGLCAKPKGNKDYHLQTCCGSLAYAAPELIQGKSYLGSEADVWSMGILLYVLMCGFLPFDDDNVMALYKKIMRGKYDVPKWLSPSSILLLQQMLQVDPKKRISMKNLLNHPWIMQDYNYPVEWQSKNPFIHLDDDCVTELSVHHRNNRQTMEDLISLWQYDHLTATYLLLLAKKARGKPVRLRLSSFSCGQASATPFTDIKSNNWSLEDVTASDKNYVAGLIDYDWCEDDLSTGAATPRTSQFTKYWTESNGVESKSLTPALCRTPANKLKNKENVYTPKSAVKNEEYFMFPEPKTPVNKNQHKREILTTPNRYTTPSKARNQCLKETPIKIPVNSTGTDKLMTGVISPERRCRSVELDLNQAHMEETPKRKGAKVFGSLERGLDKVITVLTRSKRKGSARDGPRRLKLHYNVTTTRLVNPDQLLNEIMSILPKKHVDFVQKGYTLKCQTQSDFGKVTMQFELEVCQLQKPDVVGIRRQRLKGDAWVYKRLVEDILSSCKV
NEK7 (human), sequence (Q8TDX7 whole entry, looked up): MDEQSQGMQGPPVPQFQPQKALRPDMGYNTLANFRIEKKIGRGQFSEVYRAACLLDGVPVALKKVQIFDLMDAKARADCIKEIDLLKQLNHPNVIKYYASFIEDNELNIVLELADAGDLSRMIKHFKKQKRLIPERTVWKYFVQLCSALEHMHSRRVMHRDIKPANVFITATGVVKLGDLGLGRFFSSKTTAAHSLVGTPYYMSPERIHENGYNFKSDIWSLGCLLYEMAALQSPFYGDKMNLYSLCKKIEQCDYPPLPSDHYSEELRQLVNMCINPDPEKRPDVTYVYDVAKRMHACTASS
CSNK1G1 (human), sequence (Q9HCP0 whole entry, looked up): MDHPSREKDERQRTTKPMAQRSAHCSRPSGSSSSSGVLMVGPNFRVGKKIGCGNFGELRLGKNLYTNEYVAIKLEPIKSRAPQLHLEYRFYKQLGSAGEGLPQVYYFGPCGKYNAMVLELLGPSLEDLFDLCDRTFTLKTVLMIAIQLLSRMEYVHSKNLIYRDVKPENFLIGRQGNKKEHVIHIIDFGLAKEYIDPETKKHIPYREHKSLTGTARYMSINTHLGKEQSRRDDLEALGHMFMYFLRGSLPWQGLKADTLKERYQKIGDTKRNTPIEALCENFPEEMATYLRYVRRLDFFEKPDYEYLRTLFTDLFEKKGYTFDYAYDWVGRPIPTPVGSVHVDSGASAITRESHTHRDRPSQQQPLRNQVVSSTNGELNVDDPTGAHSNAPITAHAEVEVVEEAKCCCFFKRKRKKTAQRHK
PAK3 (human), sequence (O75914 whole entry, looked up): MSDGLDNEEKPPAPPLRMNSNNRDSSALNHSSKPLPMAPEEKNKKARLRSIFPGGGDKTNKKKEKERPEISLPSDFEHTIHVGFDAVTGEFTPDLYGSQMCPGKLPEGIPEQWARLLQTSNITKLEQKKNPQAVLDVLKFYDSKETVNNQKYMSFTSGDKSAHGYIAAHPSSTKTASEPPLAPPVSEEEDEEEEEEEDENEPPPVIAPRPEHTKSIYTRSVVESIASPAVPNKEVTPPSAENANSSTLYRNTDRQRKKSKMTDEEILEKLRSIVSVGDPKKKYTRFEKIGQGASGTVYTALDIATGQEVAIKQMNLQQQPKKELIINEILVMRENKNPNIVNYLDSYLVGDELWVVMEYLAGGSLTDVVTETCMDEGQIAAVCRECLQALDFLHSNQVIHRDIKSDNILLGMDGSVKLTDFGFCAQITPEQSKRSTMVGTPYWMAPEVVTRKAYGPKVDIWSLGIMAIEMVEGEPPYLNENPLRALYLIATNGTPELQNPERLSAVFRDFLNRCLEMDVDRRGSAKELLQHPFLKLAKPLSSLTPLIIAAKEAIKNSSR
IRAK4 (human), sequence (Q9NWZ3 whole entry, looked up): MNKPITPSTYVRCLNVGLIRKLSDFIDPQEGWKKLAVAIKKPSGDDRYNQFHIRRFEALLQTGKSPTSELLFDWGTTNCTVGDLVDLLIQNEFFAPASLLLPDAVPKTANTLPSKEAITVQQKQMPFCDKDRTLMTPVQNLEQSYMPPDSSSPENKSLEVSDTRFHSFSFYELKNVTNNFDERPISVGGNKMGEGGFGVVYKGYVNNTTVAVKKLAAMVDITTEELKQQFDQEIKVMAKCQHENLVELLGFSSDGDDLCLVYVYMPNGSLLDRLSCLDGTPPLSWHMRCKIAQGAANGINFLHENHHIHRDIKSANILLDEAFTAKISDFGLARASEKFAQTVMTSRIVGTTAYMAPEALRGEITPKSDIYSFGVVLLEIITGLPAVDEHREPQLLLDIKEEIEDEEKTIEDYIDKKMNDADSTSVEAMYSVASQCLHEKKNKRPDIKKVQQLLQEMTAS

## CN(C)S(=O)(=O)c1ccc2c(c1)/C(=C/c1cc3c([nH]1)CCCC3)C(=O)N2
ACVRL1 (human)
  residual activity: 102%
NEK7 (human)
  residual activity: 103%
KIT (human)
  residual activity: 60.7%
DAPK1 (human)
  residual activity: 102%
EPHA3 (human)
  residual activity: 98.6%
[1]
  residual activity: 78.1%
SGK2 (human)
  residual activity: 101%
NLK (human)
  residual activity: 99.7%
[2]
  residual activity: 112%
PNCK (human)
  residual activity: 95.7%
MST1R (human)
  residual activity: 101%
ITK (human)
  residual activity: 61.2%
CLK2 (human)
  residual activity: 32.1%
MELK (human)
  residual activity: 89.1%
VRK1 (human)
  residual activity: 104%
MYLK (human)
  residual activity: 97.2%
PAK3 (human)
  residual activity: 97.6%
CSNK1G1 (human)
  residual activity: 101%
PRKCA (human)
  residual activity: 94.9%
AURKC (human)
  residual activity: 33.8%
PRKCZ (human)
  residual activity: 98.9%
ROS1 (human)
  residual activity: 83.3%
CHEK1 (human)
  residual activity: 76.3%
TYRO3 (human)
  residual activity: 57.2%
FGR (human)
  residual activity: 18.2%
DYRK3 (human)
  residual activity: 99.1%
IRAK1 (human)
  residual activity: 5.59%
CAMK1 (human)
  residual activity: 107%
CDK1 CCNA2 (human)
  residual activity: 70.6%
PRKCI (human)
  residual activity: 95.9%
[3]
  residual activity: 94.6%
FLT1 (human)
  residual activity: 84.9%
HCK (human)
  residual activity: 31.6%
IRAK4 (human)
  residual activity: 57.7%
NEK2 (human)
  residual activity: 98%
AURKB (human)
  residual activity: 11%
PTK2B (human)
  residual activity: 52.6%
ADRBK2 (human)
  residual activity: 97%
RPS6KB1 (human)
  residual activity: 96.5%
STK25 (human)
  residual activity: 79.6%
RPS6KA4 KD2 (human)
  residual activity: 104%
CAMK2G (human)
  residual activity: 98.9%

## COc1cc2ncnc(Nc3ccc(Oc4ccccc4)cc3)c2cc1OC
ACVRL1 (human)
  residual activity: 100%
NEK7 (human)
  residual activity: 103%
KIT (human)
  residual activity: 75.6%
DAPK1 (human)
  residual activity: 105%
EPHA3 (human)
  residual activity: 101%
[1]
  residual activity: 62.5%
SGK2 (human)
  residual activity: 113%
NLK (human)
  residual activity: 100%
[2]
  residual activity: 124%
PNCK (human)
  residual activity: 97.7%
MST1R (human)
  residual activity: 95.7%
ITK (human)
  residual activity: 93.6%
CLK2 (human)
  residual activity: 103%
MELK (human)
  residual activity: 101%
VRK1 (human)
  residual activity: 98.2%
MYLK (human)
  residual activity: 105%
PAK3 (human)
  residual activity: 98.1%
CSNK1G1 (human)
  residual activity: 90%
PRKCA (human)
  residual activity: 101%
AURKC (human)
  residual activity: 93.9%
PRKCZ (human)
  residual activity: 100%
ROS1 (human)
  residual activity: 95.3%
CHEK1 (human)
  residual activity: 97.4%
TYRO3 (human)
  residual activity: 83.4%
FGR (human)
  residual activity: 8.91%
DYRK3 (human)
  residual activity: 103%
IRAK1 (human)
  residual activity: 122%
CAMK1 (human)
  residual activity: 105%
CDK1 CCNA2 (human)
  residual activity: 92.2%
PRKCI (human)
  residual activity: 108%
[3]
  residual activity: 102%
FLT1 (human)
  residual activity: 79.8%
HCK (human)
  residual activity: 13.5%
IRAK4 (human)
  residual activity: 112%
NEK2 (human)
  residual activity: 111%
AURKB (human)
  residual activity: 50.9%
PTK2B (human)
  residual activity: 89%
ADRBK2 (human)
  residual activity: 91.8%
RPS6KB1 (human)
  residual activity: 108%
STK25 (human)
  residual activity: 109%
RPS6KA4 KD2 (human)
  residual activity: 94.4%
CAMK2G (human)
  residual activity: 94%

## O=C1NC(=O)c2c1c1c3ccccc3[nH]c1n1cncc21
ACVRL1 (human)
  residual activity: 109%
NEK7 (human)
  residual activity: 80.3%
KIT (human)
  residual activity: 38%
DAPK1 (human)
  residual activity: 26.6%
EPHA3 (human)
  residual activity: 105%
[1]
  residual activity: 56.6%
SGK2 (human)
  residual activity: 75.3%
NLK (human)
  residual activity: 87.9%
[2]
  residual activity: 88.9%
PNCK (human)
  residual activity: 105%
MST1R (human)
  residual activity: 102%
ITK (human)
  residual activity: 71.4%
CLK2 (human)
  residual activity: 94.7%
MELK (human)
  residual activity: 32.6%
VRK1 (human)
  residual activity: 78.1%
MYLK (human)
  residual activity: 15.5%
PAK3 (human)
  residual activity: 100%
CSNK1G1 (human)
  residual activity: 68.4%
PRKCA (human)
  residual activity: 66.5%
AURKC (human)
  residual activity: 47.6%
PRKCZ (human)
  residual activity: 84.8%
ROS1 (human)
  residual activity: 77%
CHEK1 (human)
  residual activity: 24.6%
TYRO3 (human)
  residual activity: 88.8%
FGR (human)
  residual activity: 94.8%
DYRK3 (human)
  residual activity: 85.8%
IRAK1 (human)
  residual activity: 83.1%
CAMK1 (human)
  residual activity: 83.3%
CDK1 CCNA2 (human)
  residual activity: 94.8%
PRKCI (human)
  residual activity: 82.3%
[3]
  residual activity: 65.7%
FLT1 (human)
  residual activity: 58%
HCK (human)
  residual activity: 94.6%
IRAK4 (human)
  residual activity: 84.8%
NEK2 (human)
  residual activity: 87.5%
AURKB (human)
  residual activity: 25.2%
PTK2B (human)
  residual activity: 70.1%
ADRBK2 (human)
  residual activity: 109%
RPS6KB1 (human)
  residual activity: 70.6%
STK25 (human)
  residual activity: 72.5%
RPS6KA4 KD2 (human)
  residual activity: 61.3%
CAMK2G (human)
  residual activity: 52.3%

## N#Cc1c[nH]c2c[nH]/c(=N\Cc3cccnc3)cc2/c1=N\c1ccc(F)c(Cl)c1
ACVRL1 (human)
  residual activity: 96.9%
NEK7 (human)
  residual activity: 102%
KIT (human)
  residual activity: 92.9%
DAPK1 (human)
  residual activity: 102%
EPHA3 (human)
  residual activity: 122%
[1]
  residual activity: 96.2%
SGK2 (human)
  residual activity: 98.5%
NLK (human)
  residual activity: 88%
[2]
  residual activity: 113%
PNCK (human)
  residual activity: 99.8%
MST1R (human)
  residual activity: 89.6%
ITK (human)
  residual activity: 99.1%
CLK2 (human)
  residual activity: 79.9%
MELK (human)
  residual activity: 88%
VRK1 (human)
  residual activity: 99.2%
MYLK (human)
  residual activity: 105%
PAK3 (human)
  residual activity: 99.2%
CSNK1G1 (human)
  residual activity: 87%
PRKCA (human)
  residual activity: 89.7%
AURKC (human)
  residual activity: 91.8%
PRKCZ (human)
  residual activity: 93.9%
ROS1 (human)
  residual activity: 98.3%
CHEK1 (human)
  residual activity: 90.2%
TYRO3 (human)
  residual activity: 98%
FGR (human)
  residual activity: 84.5%
DYRK3 (human)
  residual activity: 96.3%
IRAK1 (human)
  residual activity: 114%
CAMK1 (human)
  residual activity: 99.1%
CDK1 CCNA2 (human)
  residual activity: 88%
PRKCI (human)
  residual activity: 94.7%
[3]
  residual activity: 115%
FLT1 (human)
  residual activity: 88%
HCK (human)
  residual activity: 92.5%
IRAK4 (human)
  residual activity: 100%
NEK2 (human)
  residual activity: 75.2%
AURKB (human)
  residual activity: 90.1%
PTK2B (human)
  residual activity: 100%
ADRBK2 (human)
  residual activity: 100%
RPS6KB1 (human)
  residual activity: 89.4%
STK25 (human)
  residual activity: 95.6%
RPS6KA4 KD2 (human)
  residual activity: 92%
CAMK2G (human)
  residual activity: 91.2%
